Laboratory results as given in patent US8236779B2, “Antiviral nucleosides” (Roche Palo Alto LLC, priority 2010, dated 2012).

Columns and labels:
[1] = biological target: T1, HCV polymerase (NS5B570n-Con1) (Hepatitis C virus genotype 1b, UniProt Q9WMX2); experiment: HCV NS5B RNA polymerase activity; type: biochemical, HCV Con1 strain
T1 construct: a 21 amino acid C-terminal deletion of full-length HCV polymerase derived from HCV Con1 strain; made in house; host or cells: E. coli BL21(DE3) pLysS, plasmid pET17b
Procedure: The enzymatic activity of HCV polymerase (NS5B570n-Con1) was measured as the incorporation of radiolabeled nucleotide monophosphates into acid insoluble RNA products. Unincorporated radiolabeled substrate was removed by filtration and scintillant was added to the washed and dried filter plate containing radiolabeled RNA product. The amount of RNA product generated by NS5B570n-Con1 at the end of the reaction was directly proportional to the amount of light emitted by the scintillant.
The HCV polymerase used in the enzymatic activity assay is a 21 amino acid C-terminal deletion of full-length HCV polymerase derived from HCV Con1 strain, genotype 1b (GenBank accession number AJ242654) (NS5B570n-Con1). The NS5B570n-Cont was sub-cloned downstream to the T7 promoter of the plasmid expression construct pET17b and transformed into E. coli strain BL21(DE3) pLysS for protein expression. A single colony was used to start an innoculum for a 10 L culture in LB media supplemented with 100 μg/mL ampicillin at 37° C. […]
The amount of light emitted from the scintillant was converted to counts per minute (CPM) on a Topcount® plate reader (Perkin-Elmer, Energy Range: Low, Efficiency Mode: Normal, Count Time: 1 min, Background Subtract: none, Cross talk reduction: Off).
Data was analyzed in Excel® (Microsoft®) and ActivityBase® (Idbs®). […] All data was expressed as a percentage of the positive control. […]

[2] = test system: human hepatoma Huh7 cells; experiment: Phosphorylation in Huh7 replicon cells; type: in vitro ADME
Text: (FIG. 2) Since the cell specific phosphorylation takes place in the target tissue for HCV replication, there is the potential that 4′-AU will be selectively phosphorylated in the target tissue vis-à-vis other tissues thereby minimizing off target toxicity.

[3] = test system: primary human hepatocytes; experiment: Uptake and phosphorylation in primary human hepatocytes; type: in vitro ADME
Procedure: The analysis of uptake and phosphorylation of the nucleoside analog 4AU in primary human hepatocytes was performed as previously published (Ma, H. et al. J. Biol. Chem. 2007, 282:29812-29820). Fresh human hepatocytes were plated and incubated with ^3H-labeled 4AU for different time spans. At the time of cell harvest the cell culture medium was aspirated, and the cells were washed once with cold phosphate-buffered saline. The cells were scraped into 1 mL of pre-chilled 60% (v/v) methanol containing 10 mM EDTA and extracted in methanol for 24 h at −20° C. The extracted samples were then centrifuged at 10,000×g for 15 min to remove cell debris. The supernatant was transferred to new tubes and evaporated in a speed vacuum at room temperature. The dried pellets of cell extracts were dissolved in H2O. Before HPLC analysis, cell extract samples were spiked with unlabeled reference standards 4AU and 4AU-mono-, di- and triphosphate derivatives.
The phosphorylation derivatives of 4AU were separated by ion exchange HPLC with a Whatman Partisil 10 SAX (4.6×250 mm) column coupled to a radiometric detector (β-RAM, IN/US Systems, Inc.). The mobile phase gradient changed linearly from 99% buffer A (H2O) and 1% buffer B (0.5 M KH2PO4+0.8 M KCl) to 100% buffer B between 4 and 16 minutes. 100% buffer B ran from 16 minutes to 26 minutes and changed back to 100% A in 1 minute. Buffer A ran until 32 minutes. […]

[4] = test system: HCV replicon (human hepatoma Huh7 cells); details: cited from earlier work
[5] = test system: HCV; details: monotherapy; cited from earlier work
[6] = test system: HCV; details: cited from earlier work

In the case of `[N-]=[N+]=N[C@]1(COP(=O)(O)OP(=O)(O)OP(=O)(O)O)O[C@@H](n2ccc(N)nc2=O)[C@H](O)[C@@H]1O` [4′-AC-triphosphate, 4′-azido-cytidine triphosphate], the IC50 [1] is reported as 29 ± 0.13 µM.

With `[N-]=[N+]=N[C@]1(CO)O[C@@H](n2ccc(=O)[nH]c2=O)[C@H](O)[C@@H]1O` [4′-AU, 4′-azido-uridine] the “phosphorylation in Huh7 cells used in the replicon assay” value [2] was “lack of phosphorylation”, the “efficiency of phosphorylation relative to 4′-AC” value ([3]; 4′-AU vs 4′-AC, human hepatocytes) was “approximately 10 fold” and the “phosphorylation in primary human hepatocytes” value ([3]; primary human hepatocytes) was “phosphorylation does occur efficiently”. The “activity in the replicon assay” value [4] was “inactive”.

`[N-]=[N+]=N[C@]1(COP(=O)(O)OP(=O)(O)OP(=O)(O)O)O[C@@H](n2ccc(=O)[nH]c2=O)[C@H](O)[C@@H]1O` [4′-AU triphosphate, 4-azidouridine triphosphate] gave an IC50 [1] of 0.46 ± 0.088 µM.

For `NC(=O)c1ncn([C@@H]2O[C@H](CO)[C@@H](O)[C@H]2O)n1` [ribavirin, 1-((2R,3R,4S,5R)-3,4-Dihydroxy-5-hydroxymethyl-tetrahydro-furan-2-yl)-1H-[1,2,4]triazole-3-carboxylic acid amide], the “effect on serum levels of HCV-RNA” value [5] is given as “does not lower serum levels of HCV-RNA” and the “patients with serum amino transferase levels reduced to normal” value [5] is given as 40%.

For `[N-]=[N+]=N[C@]1(CO)O[C@@H](n2ccc(N)nc2=O)[C@H](O)[C@@H]1O` [4′-AC, 4′-azido-cytidine], the “inhibition of viral replication” value [6] is listed as “potent inhibitor of viral replication”.

With `CCC(=O)O[C@H]1[C@H](n2ccc(=O)[nH]c2=O)O[C@@](CO)(N=[N+]=[N-])[C@H]1OC(=O)CC` [I-1, Propionic acid (2R,3R,4S,5R)-5-azido-2-(2,4-dioxo-3,4-dihydro-2H-pyrimidin-1-yl)-5-hydroxymethyl-4-propionyloxy-tetrahydro-furan-3-yl ester] the melting point was 118 to 120 °C.

Compound `CC(=O)OC(O)[C@@]1(N=[N+]=[N-])O[C@@H](n2ccc(=O)[nH]c2=O)[C@@](O)(OC(C)=O)[C@@]1(O)OC(C)=O` (some centres unmarked) has a melting point of 158 °C.
